Assay results reported in US20240398784A1, “C-LINKED ISOQUINOLINE AMIDES AS LRRK2 INHIBITORS, PHARMACEUTICAL COMPOSITIONS, AND USES THEREOF” (Merck Sharp & Dohme LLC, priority 2021, published 2024).

Target: LRRK2 G2019S (Homo sapiens, UniProt Q5S007, G2019S)
Test: LRRK2 G2019S Km ATP LanthaScreen assay
Type: biochemical
Settings: not given

Chain of LRRK2 G2019S (Q5S007 whole entry G2019S): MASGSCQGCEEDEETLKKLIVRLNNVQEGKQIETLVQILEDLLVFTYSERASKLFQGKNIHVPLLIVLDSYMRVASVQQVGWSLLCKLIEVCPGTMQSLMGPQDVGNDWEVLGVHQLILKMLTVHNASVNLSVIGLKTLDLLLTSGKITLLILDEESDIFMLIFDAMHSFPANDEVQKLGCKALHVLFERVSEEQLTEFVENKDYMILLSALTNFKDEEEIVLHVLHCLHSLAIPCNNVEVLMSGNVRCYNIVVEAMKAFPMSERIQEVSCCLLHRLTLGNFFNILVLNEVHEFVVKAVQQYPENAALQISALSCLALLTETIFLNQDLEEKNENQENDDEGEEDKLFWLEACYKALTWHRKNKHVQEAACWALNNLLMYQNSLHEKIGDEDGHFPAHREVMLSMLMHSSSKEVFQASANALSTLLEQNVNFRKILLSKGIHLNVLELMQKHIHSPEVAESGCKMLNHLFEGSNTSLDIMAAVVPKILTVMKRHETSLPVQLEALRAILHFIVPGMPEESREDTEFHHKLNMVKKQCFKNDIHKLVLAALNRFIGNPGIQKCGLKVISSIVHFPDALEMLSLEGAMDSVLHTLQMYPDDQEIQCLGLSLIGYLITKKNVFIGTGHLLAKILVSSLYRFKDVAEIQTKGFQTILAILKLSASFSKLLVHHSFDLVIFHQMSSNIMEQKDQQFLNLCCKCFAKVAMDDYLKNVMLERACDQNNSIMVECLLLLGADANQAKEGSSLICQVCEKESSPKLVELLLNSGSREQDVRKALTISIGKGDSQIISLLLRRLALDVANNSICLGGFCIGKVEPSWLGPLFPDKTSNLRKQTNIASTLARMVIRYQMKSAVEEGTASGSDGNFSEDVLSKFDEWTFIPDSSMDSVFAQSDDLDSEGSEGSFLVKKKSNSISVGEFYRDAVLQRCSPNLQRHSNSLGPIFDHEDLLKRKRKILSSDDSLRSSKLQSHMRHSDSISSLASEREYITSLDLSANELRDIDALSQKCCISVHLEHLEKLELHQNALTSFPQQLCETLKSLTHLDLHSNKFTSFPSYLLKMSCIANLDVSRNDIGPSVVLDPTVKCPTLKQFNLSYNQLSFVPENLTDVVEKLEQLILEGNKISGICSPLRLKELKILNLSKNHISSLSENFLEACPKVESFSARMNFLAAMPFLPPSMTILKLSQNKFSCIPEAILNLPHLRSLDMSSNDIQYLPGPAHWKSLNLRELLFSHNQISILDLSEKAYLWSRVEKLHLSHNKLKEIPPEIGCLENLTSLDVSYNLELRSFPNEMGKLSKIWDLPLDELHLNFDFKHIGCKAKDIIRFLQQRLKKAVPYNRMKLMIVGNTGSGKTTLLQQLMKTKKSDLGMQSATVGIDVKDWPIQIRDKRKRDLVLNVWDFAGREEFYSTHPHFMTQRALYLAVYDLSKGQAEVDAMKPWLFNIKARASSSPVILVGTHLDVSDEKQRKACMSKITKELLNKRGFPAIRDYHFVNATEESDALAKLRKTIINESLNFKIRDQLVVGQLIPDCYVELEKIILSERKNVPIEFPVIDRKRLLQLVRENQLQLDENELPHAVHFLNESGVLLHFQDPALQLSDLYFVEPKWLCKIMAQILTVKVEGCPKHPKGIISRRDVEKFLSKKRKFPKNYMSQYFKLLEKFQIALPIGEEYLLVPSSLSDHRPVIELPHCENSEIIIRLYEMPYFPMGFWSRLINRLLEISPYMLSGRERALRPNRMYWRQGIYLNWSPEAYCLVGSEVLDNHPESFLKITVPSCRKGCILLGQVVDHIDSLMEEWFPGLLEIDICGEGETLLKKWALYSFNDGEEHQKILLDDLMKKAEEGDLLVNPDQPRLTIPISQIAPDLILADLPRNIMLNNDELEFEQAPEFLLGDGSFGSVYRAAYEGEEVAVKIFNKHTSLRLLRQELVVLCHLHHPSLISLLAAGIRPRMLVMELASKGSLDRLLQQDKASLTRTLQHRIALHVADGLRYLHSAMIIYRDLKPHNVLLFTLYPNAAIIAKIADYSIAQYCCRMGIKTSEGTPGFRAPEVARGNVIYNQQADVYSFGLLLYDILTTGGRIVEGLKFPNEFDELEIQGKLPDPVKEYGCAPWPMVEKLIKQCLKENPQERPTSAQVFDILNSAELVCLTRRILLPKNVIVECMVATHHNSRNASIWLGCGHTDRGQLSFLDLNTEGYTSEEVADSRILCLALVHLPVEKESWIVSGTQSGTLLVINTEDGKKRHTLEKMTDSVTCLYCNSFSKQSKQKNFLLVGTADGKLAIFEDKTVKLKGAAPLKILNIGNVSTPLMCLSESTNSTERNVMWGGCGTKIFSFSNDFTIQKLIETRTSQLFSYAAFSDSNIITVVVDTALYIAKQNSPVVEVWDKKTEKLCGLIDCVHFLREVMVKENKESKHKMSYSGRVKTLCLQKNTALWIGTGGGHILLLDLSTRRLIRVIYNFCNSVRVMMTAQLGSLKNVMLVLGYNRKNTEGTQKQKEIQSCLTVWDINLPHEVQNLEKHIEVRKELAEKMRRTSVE

| LRRK2 pIC50 | SMILES |
| --- | --- |
| 8.96 | CO[C@H]1C[C@H](C(=O)Nc2cc3cc(C4(C#N)CC45CC5)ccc3cn2)C1.O=C(O)C(F)(F)F (stereo partly shown) [Ex-1.1] |

Same assay, conditions: read-out: LRRK2 pIC50 (converted)

| IC50 [nM] | SMILES |
| --- | --- |
| 0.501 | Cc1cc2cnc(NC(=O)C3CC3c3ccccn3)cc2cc1C1CCN(C2(C)COCC2F)CC1 (single isomer, unassigned) [Ex-13.3, (1R,2R or 1S,2S)-N-(6-(1-((3R,4R or 3S,4S)-4-fluoro-3-methyltetrahydrofuran-3-yl)piperidin-4-yl)-7-methylisoquinolin-3-yl)-2-(pyridin-2-yl)cyclopropane-1-carboxamide] |
| 39.8 | CC1(C)COCC1(C)N1CCC(c2cc3cc(NC(=O)C4CC45CCOCC5)ncc3cc2Cl)CC1 (single isomer, unassigned) [Ex-6.19, N-(7-chloro-6-(1-(3,4,4-trimethyltetrahydrofuran-3-yl)piperidin-4-yl)isoquinolin-3-yl)-6-oxaspiro[2.5]octane-1-carboxamide] |
| 0.776 | Cn1cc(C(=O)Nc2cc3cc(C4CCN([C@]5(C)COC[C@@H]5O)CC4)c(Cl)cc3cn2)cn1 (single isomer, unassigned) [Ex-12.6, N-(7-chloro-6-(1-(4-hydroxy-3-methyltetrahydrofuran-3-yl)piperidin-4-yl)isoquinolin-3-yl)-1-methyl-1H-pyrazole-4-carboxamide] |
| 1.23 | Cc1cc2cnc(NC(=O)C3CC34CCOC4)cc2cc1C1CCN(C2(C)COCC2F)CC1 (single isomer, unassigned) [Ex-15.7, N-(6-(1-(4-fluoro-3-methyltetrahydrofuran-3-yl)piperidin-4-yl)-7-methylisoquinolin-3-yl)-5-oxaspiro[2.4]heptane-1-carboxamide] |
| 0.363 | CC1(N2CCC(c3cc4cc(NC(=O)C5C6CCCOC65)ncc4cc3Cl)CC2)COCC1O (single isomer, unassigned) [Ex-4.11, N-(7-chloro-6-(1-(4-hydroxy-3-methyltetrahydrofuran-3-yl)piperidin-4-yl)isoquinolin-3-yl)-2-oxabicyclo[4.1.0]heptane-7-carboxamide] |
| 9.77 | N#CC1(c2ccc3cnc(NC(=O)C4CC(OC(F)F)C4)cc3c2)CC12CC2 (single isomer, unassigned) [Ex-2.5] |
| 2.63 | COC1CC(C(=O)Nc2cc3cc(C4CCN(C5COC5)CC4)c(Cl)cc3cn2)C1 (racemic) [Ex-7.9, Rac-N-(7-chloro-6-(1-(oxetan-3-yl)piperidin-4-yl)isoquinolin-3-yl)-3-methoxycyclobutane-1-carboxamide] |
| 0.0813 | Cc1cc2cnc(NC(=O)C3CC34CCOCC4)cc2cc1C1CCN(C2(C)COCC2O)CC1 (single isomer, unassigned) [Ex-15.16, N-(6-(1-(4-hydroxy-3-methyltetrahydrofuran-3-yl)piperidin-4-yl)-7-methylisoquinolin-3-yl)-6-oxaspiro[2.5]octane-1-carboxamide] |
| 2.34 | CC1(N2CCC(c3cc4cc(NC(=O)C5CCC6(CCC6)OC5)ncc4cc3Cl)CC2)COCC1O (single isomer, unassigned) [Ex-4.23, N-(7-chloro-6-(1-(4-hydroxy-3-methyltetrahydrofuran-3-yl)piperidin-4-yl)isoquinolin-3-yl)-5-oxaspiro[3.5]nonane-7-carboxamide] |
| 52.5 | CC1(c2ccccn2)CC1C(=O)Nc1cc2cc(C3CCN(C4(C)COCC4O)CC3)c(Cl)cc2cn1 (stereo not shown) [Ex-2.90] |
| 257 | CC1(N2CCC(c3cc4cc(NC(=O)C5CC5c5cc(F)ccn5)ncc4cc3Cl)CC2)COCC1O (single isomer, unassigned) [Ex-4.40, N-(7-chloro-6-(1-(4-hydroxy-3-methyltetrahydrofuran-3-yl)piperidin-4-yl)isoquinolin-3-yl)-2-(4-fluoropyridin-2-yl)cyclopropane-1-carboxamide] |
| 0.501 | Cc1cc2cnc(NC(=O)C3CC3C(C)(C)F)cc2cc1C1CCN(C2(C)COCC2O)CC1 (single isomer, unassigned) [Ex-15.6, 2-(2-fluoropropan-2-yl)-N-(6-(1-(4-hydroxy-3-methyltetrahydrofuran-3-yl)piperidin-4-yl)-7-methylisoquinolin-3-yl)cyclopropane-1-carboxamide] |
| 34.7 | CC1(N2CCC(c3cc4cc(NC(=O)C5CC56CCOC6)ncc4cc3Cl)CC2)COCC1F (single isomer, unassigned) [Ex-6.8, (R or S)-N-(7-chloro-6-(1-((3R,4R or 3S,4S)-4-fluoro-3-methyltetrahydrofuran-3-yl)piperidin-4-yl)isoquinolin-3-yl)-5-oxaspiro [2.4] heptane-1-carboxamide] |
| 1780 | CC1(N2CCC(c3cc4cc(NC(=O)C5CCC5c5ccccn5)ncc4cc3Cl)CC2)COCC1O (single isomer, unassigned) [Ex-4.74, N-(7-chloro-6-(1-(4-hydroxy-3-methyltetrahydrofuran-3-yl)piperidin-4-yl)isoquinolin-3-yl)-2-(pyridin-2-yl)cyclobutane-1-carboxamide] |
| 0.363 | CC(C)(O)C1CC1C(=O)Nc1cc2cc(C3CCN(C4(C)COCC4F)CC3)c(Cl)cc2cn1 (single isomer, unassigned) [Ex-6.28, N-(7-chloro-6-(1-(4-fluoro-3-methyltetrahydrofuran-3-yl)piperidin-4-yl)isoquinolin-3-yl)-2-(2-hydroxypropan-2-yl)cyclopropane-1-carboxamide] |
| 0.102 | CC1(N2CCC(c3cc4cc(NC(=O)C5COC6(CCC6)C5)ncc4cc3Cl)CC2)COCC1O (single isomer, unassigned) [Ex-4.17, N-(7-chloro-6-(1-(4-hydroxy-3-methyltetrahydrofuran-3-yl)piperidin-4-yl)isoquinolin-3-yl)-5-oxaspiro[3.4]octane-7-carboxamide] |
| 1.74 | CC1(N2CCC(c3cc4cc(NC(=O)C5CC5c5ccncc5)ncc4cc3Cl)CC2)COCC1O (single isomer, unassigned) [Ex-4.22, N-(7-chloro-6-(1-(4-hydroxy-3-methyltetrahydrofuran-3-yl)piperidin-4-yl)isoquinolin-3-yl)-2-(pyridin-4-yl)cyclopropane-1-carboxamide] |

| IC50 [nM] | SMILES |
| --- | --- |
| 0.257 | CC(C)(O)C1CC1C(=O)Nc1cc2cc(C3CCN(C4(C)CCOC4)CC3)c(Cl)cc2cn1 (stereo not shown) [Ex-2.24] |
| 0.0813 | COC1COCC1(C)N1CCC(c2cc3cc(NC(=O)C4CC45CCOCC5)ncc3cc2Cl)CC1 (single isomer, unassigned) [Ex-6.22, N-(7-chloro-6-(1-(4-methoxy-3-methyltetrahydrofuran-3-yl)piperidin-4-yl)isoquinolin-3-yl)-6-oxaspiro[2.5]octane-1-carboxamide] |
| 141 | CC1(N2CCC(c3cc4cc(NC(=O)C5CC56CCOC6)ncc4cc3Cl)CC2)COCC1F (single isomer, unassigned) [Ex-6.4, (R or S)-N-(7-chloro-6-(1-((3R,4R or 3S,4S)-4-fluoro-3-methyltetrahydrofuran-3-yl)piperidin-4-yl)isoquinolin-3-yl)-5-oxaspiro [2.4] heptane-1-carboxamide] |
| 16.6 | CC1(C(=O)Nc2cc3cc(C4CCN(C5COC5)CC4)c(Cl)cc3cn2)CC1 [Ex-7.3, N-(7-chloro-6-(1-(oxetan-3-yl)piperidin-4-yl)isoquinolin-3-yl)-1-methylcyclopropane-1-carboxamide] |
| 12.6 | Cc1nc(C(=O)Nc2cc3cc(C4CCN(C5COC5)CC4)c(Cl)cc3cn2)co1 [Ex-1.37, N-(7-chloro-6-(1-(oxetan-3-yl)piperidin-4-yl)isoquinolin-3-yl)-2-methyloxazole-4-carboxamide] |
| 0.513 | Cc1cc2cnc(NC(=O)C3CCOC(C)(C)C3)cc2cc1C1CCN(C2(C)COCC2O)CC1 (stereo not shown) [Ex-2.49] |
| 1.82 | CCC1C(C(=O)Nc2cc3cc(C(C)CC#N)c(Cl)cc3cn2)C1c1cnn(C)c1 (single isomer, unassigned) [Ex-9.16, N-(7-chloro-6-(1-cyanopropan-2-yl)isoquinolin-3-yl)-2-ethyl-3-(1-methyl-1H-pyrazol-4-yl)cyclopropane-1-carboxamide] |
| 0.224 | CC(C)(O)C1CC1C(=O)Nc1cc2cc(C3(C#N)CC34CC4)ccc2cn1 (stereo not shown) [Ex-2.31] |
| 3.98 | CC1C(C(=O)Nc2cc3cc(C4CCN(C5(C)COCC5O)CC4)c(Cl)cc3cn2)C1c1ccccn1 (single isomer, unassigned) [Ex-4.53, N-(7-chloro-6-(1-(4-hydroxy-3-methyltetrahydrofuran-3-yl)piperidin-4-yl)isoquinolin-3-yl)-2-methyl-3-(pyridin-2-yl)cyclopropane-1-carboxamide] |
| 2.34 | CCC(=O)N1CCC(C(=O)Nc2cc3cc(C4(C#N)CC45CC5)ccc3cn2)CC1 (single isomer, unassigned) [Ex-1.32, N-(6-((R or S)-1-cyanospiro[2.2]pentan-1-yl)isoquinolin-3-yl)-1-propionylpiperidine-4-carboxamide] |
| 324 | Cn1ncc(C2CC2C(=O)Nc2cc3cc(C4(C#N)CC45CC5)ccc3cn2)c1C(F)(F)F (stereo not shown) [Ex-2.48] |
| 240 | CC1(c2ccccn2)CC1C(=O)Nc1cc2cc(C3CCN(C4(C)COCC4O)CC3)c(Cl)cc2cn1 (stereo not shown) [Ex-2.91] |
| 0.0813 | Cn1ncc(C2CC2C(=O)Nc2cc3cc(C4CCN(C5(C)COCC5O)CC4)c(Cl)cc3cn2)c1C(F)(F)F (single isomer, unassigned) [Ex-4.37, N-(7-chloro-6-(1-(4-hydroxy-3-methyltetrahydrofuran-3-yl)piperidin-4-yl)isoquinolin-3-yl)-2-(1-methyl-5-(trifluoromethyl)-1H-pyrazol-4-yl)cyclopropane-1-carboxamide] |
| 0.631 | CC1CC1C(=O)Nc1cc2cc(C3CCN(C4COC4)CC3)c(Cl)cc2cn1 (single isomer, unassigned) [Ex-9.3, N-(7-chloro-6-(1-(oxetan-3-yl)piperidin-4-yl)isoquinolin-3-yl)-2-methylcyclopropane-1-carboxamide] |
| 3.02 | CC1(C)CC(C(=O)Nc2cc3cc(C4CCC(N5CCC(F)C5)CC4)c(Cl)cc3cn2)CCO1 (single isomer, unassigned) [Ex-5.10, N-(7-chloro-6-(4-(3-fluoropyrrolidin-1-yl)cyclohexyl)isoquinolin-3-yl)-2,2-dimethyltetrahydro-2H-pyran-4-carboxamid] |
| 43.7 | CC1(N2CCC(c3cc4cc(NC(=O)C5CCC(C(F)(F)F)OC5)ncc4cc3Cl)CC2)COCC1O (stereo not shown) [Ex-2.61] |
